Values quoted from earlier work as cited in US20070117867A1, “Kit comprising three independent compositions and methods for building muscle, increasing strength, increasing muscle size, increasing muscle performance and reducing muscle fatigue” (priority 2005, published 2007).

Columns and labels:
protein synthesis = details: for the purposes of muscle growth and development
muscle = details: Creatine supplementation

CC(C)C[C@H](N)C(=O)O [Leucine]
protein synthesis (protein synthesis): directly activate

CN(CC(=O)O)C(=N)N [Creatine]
concentration of Creatine in the muscle (muscle): increase | resynthesis of Phosphocreatine (muscle; within 2 minutes of recovery following exercise): increase

O=C(O)CCCCC1CCSS1 (stereo not drawn) [Alpha Lipoic Acid]
body's utilization of blood sugar (type II diabetics): significantly increase
